Here are results for 21 compounds from patent publication US20060045953A1 (priority 2004, published 2006).

The target of this experiment is T1, hT1R2/hT1R3 sweet receptor (Homo sapiens, UniProt Q7RTX0+Q8TE23).
T1 construct: expressed in transfected cells; host or cells: HEK293 derivative stably expressing Gα15, clone S-9
T1 sequence (Q8TE23 20-839): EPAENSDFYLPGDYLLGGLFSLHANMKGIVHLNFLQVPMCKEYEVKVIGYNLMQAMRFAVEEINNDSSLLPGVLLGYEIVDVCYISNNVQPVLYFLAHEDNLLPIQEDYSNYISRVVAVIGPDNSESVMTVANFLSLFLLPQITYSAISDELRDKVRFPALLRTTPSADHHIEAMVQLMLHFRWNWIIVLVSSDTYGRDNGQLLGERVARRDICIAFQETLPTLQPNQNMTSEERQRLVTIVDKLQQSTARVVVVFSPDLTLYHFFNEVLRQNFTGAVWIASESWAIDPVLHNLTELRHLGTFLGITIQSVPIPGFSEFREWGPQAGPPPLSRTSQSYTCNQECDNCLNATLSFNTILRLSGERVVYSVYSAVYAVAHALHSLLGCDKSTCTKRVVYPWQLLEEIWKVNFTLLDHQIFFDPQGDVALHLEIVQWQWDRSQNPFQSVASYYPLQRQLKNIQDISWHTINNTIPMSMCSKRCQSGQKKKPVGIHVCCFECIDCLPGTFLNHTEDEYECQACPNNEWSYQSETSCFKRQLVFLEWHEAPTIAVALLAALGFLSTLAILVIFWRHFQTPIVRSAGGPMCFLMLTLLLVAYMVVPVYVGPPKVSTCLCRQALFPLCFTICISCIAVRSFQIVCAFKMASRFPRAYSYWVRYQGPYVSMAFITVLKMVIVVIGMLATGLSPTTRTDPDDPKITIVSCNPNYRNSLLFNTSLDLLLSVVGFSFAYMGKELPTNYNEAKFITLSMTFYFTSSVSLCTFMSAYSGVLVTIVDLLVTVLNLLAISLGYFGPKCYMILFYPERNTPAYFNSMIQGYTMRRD
T1 sequence (Q7RTX0 21-852): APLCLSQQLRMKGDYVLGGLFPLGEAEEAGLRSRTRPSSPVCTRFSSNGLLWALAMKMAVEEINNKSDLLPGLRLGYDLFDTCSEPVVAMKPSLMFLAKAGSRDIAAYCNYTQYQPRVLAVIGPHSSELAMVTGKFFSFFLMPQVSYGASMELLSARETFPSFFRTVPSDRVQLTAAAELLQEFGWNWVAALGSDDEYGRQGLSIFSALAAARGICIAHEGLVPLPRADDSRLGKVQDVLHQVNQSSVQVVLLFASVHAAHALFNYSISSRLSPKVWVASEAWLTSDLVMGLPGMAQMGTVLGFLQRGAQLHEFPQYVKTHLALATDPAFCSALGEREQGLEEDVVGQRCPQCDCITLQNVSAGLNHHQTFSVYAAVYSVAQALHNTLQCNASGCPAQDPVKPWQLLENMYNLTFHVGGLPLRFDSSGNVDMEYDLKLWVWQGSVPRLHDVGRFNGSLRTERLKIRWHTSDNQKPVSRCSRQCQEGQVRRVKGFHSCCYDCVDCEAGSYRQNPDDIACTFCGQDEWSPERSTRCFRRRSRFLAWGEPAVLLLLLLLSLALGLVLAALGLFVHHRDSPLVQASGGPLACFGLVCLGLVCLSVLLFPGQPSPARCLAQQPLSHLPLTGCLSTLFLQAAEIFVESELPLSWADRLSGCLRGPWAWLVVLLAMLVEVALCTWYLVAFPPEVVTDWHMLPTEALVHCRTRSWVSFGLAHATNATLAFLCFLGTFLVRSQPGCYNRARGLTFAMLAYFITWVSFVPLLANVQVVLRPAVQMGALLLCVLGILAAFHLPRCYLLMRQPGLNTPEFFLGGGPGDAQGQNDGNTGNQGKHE
Kind of experiment: In vitro hT1R2/hT1R3 sweet taste receptor activation assay (FLIPR, dose response). It is filed as cell-based. On the procedure: Activity was determined using an automated fluorometric imaging assay on a FLIPR instrument (Fluorometric Intensity Plate Reader, Molecular Devices, Sunnyvale, Calif.) (designated FLIPR assay). […] S-9 cells were grown for 24 hours at 37° C. S-9 cells were then loaded with the calcium dye Fluo-3AM (Molecular Probes, Eugene, Oreg.), 4 µM in a phosphate buffered saline (D-PBS) (Invitrogen, Carlsbad, Calif.), for 1 hour at room temperature. After replacement with 25 µl D-PBS, stimulation was performed in the FLIPR instrument and at room temperature by the addition of 25 µl D-PBS supplemented with different stimuli at concentrations corresponding to twice the desired final level.
For dose-responses analysis, stimuli were presented in duplicates at 10 different concentrations ranging from 60 nM to 30 µM. Activities were normalized to the response obtained with 400 mM D-fructose, a concentration that elicits maximum receptor response. EC50s were determined using a non-linear regression algorithm (using a Senomyx, Inc. software), where the Hill slope, bottom asymptotes and top asymptotes were allow to vary.

[1] abbreviates: Table E, Sweet Enhancer Amides, read-out: Sweet EC50.
[2] abbreviates: read-out: EC50 for activation of a hT1R2/hT1R3 sweet receptor expressed in an HEK293 cell line.

Like-named read-outs stand apart in the source and are kept apart here.

On to `Cc1c(F)c(F)c(C(=O)NC2CCCCCCC2)c(F)c1F` [Example E46, N-cyclooctyl-2,3,5,6-tetrafluoro-4-methylbenzamide], for which the EC50 under setting [1] worked out at 1250 nM.
With `Cc1cccc(C(=O)NC2CCCCC2C)c1Cl` (stereo not drawn) [Example E57, 2-chloro-3-methyl-N-(2-methylcyclohexyl)benzamide], the EC50 under setting [1] is 1950 nM.
As for `Cc1nocc1C(=O)NC1CCC(C)c2ccccc21` (stereo not drawn) [Example E11, 3-methyl-N-(4-methyl-1,2,3,4-tetrahydronaphthalen-1-yl)isoxazole-4-carboxamide], the EC50 under setting [1] is 2460 nM.
In the case of `CC1CCCCC1NC(=O)c1ccnc(Cl)c1` (stereo not drawn) [Example E56, 2-chloro-N-(2-methylcyclohexyl)isonicotinamide], the EC50 under setting [1] was found to be 1920 nM.
As to `Cc1c(F)c(F)c(C(=O)NC2CCCCC2)c(F)c1F` [Example E45, N-cyclohexyl-2,3,5,6-tetrafluoro-4-methylbenzamide], the EC50 under setting [1] turned out to be 1130 nM.
On to `CC1CCCCC1NC(=O)c1cccc(C(F)(F)F)c1` (stereo not drawn) [Example E59, N-(2-methylcyclohexyl)-3-(trifluoromethyl)benzamide], for which, under setting [1], the EC50 stood at 2340 nM.
Turning to `N#Cc1c(F)cccc1NC(=O)c1ccc(Cl)cc1Cl` [Example E90, 2,4-Dichloro-N-(2-cyano-3-fluoro-phenyl)-benzamide], the EC50 under setting [1] turned out to be 2710 nM.
Consider `O=C(Nc1c(F)cc(Br)cc1F)N1Cc2cccc([N+](=O)[O-])c2C1` [Example 196, N-(4-Bromo-2,6-difluorophenyl)-4-nitroisoindoline-2-carboxamide], for which the EC50 under setting [2] came out at 1070 nM.
Consider `CCOc1cccc2c1CCCC2NC(=O)c1conc1C` (stereo not drawn) [Example 181], for which, under setting [2], the EC50 worked out at 4500 nM.
As for `CC1CCCC(NC(=O)c2c(Cl)cccc2Cl)C1C` (stereo not drawn) [Example E64, 2,6-dichloro-N-(2,3-dimethylcyclohexyl)benzamide], the EC50 under setting [1] is 2770 nM.
Consider `O=C(Nc1ccc(F)cc1F)c1cc(Cl)ccc1O` [Example E89, 5-Chloro-N-(2,4-difluoro-phenyl)-2-hydroxy-benzamide], for which the EC50 under setting [1] was 2560 nM.
With `CCCOc1cc(C)c(C(=O)NC2CCCCC2C)c(C)c1` (stereo not drawn) [Example 201, 2,6-dimethyl-N-(2-methylcyclohexyl)-4-propoxybenzamide], the EC50 under setting [2] is 690 nM.
`C/C=C/c1c(F)c(F)c(C(=O)N[C@@H](C)C(C)C)c(F)c1F` [Example E129, (S,E)-2,3,5,6-tetrafluoro-N-(3-methylbutan-2-yl)-4-(prop-1-enyl)benzamide]: under setting [1], the EC50 came out at 410 nM.
Regarding `Cc1c(Cl)cccc1C(=O)NC1CCCCC1C` (stereo not drawn) [Example E80, 3-chloro-2-methyl-N-(2-methylcyclohexyl)benzamide], the EC50 under setting [1] turned out to be 4290 nM.
For the compound `Cc1cccc(NC(=O)N2CCc3ccccc32)c1C` [Example E120, N-(2,3-dimethylphenyl)indoline-1-carboxamide], the EC50 under setting [1] was 2380 nM.
For the compound `COc1c(Cl)ccc(Cl)c1C(=O)NC1CCCc2ccccc21` (stereo not drawn) [Example E16, 3,6-dichloro-2-methoxy-N-(1,2,3,4-tetrahydronaphthalen-1-yl)benzamide], under setting [1], the EC50 was found to be 3040 nM.
Regarding `COc1ccc(NC(=O)N2Cc3ccccc3C2)c(C)c1` [Example 173, N-(4-methoxy-2-methylphenyl)isoindoline-2-carboxamide], the EC50 under setting [2] stood at 4500 nM.
Regarding `Cc1cc([N+](=O)[O-])ccc1NC(=O)N1Cc2ccccc2C1` [Example E100, N-(2-methyl-4-nitrophenyl)isoindoline-2-carboxamide], under setting [1], the EC50 amounted to 1300 nM.
In the case of `CC1CCCCC1NC(=O)c1ccc(F)c(F)c1` (stereo not drawn) [Example E81], the EC50 under setting [1] was found to be 4370 nM.
In the case of `COc1cccc2c1CCCC2NC(=O)c1cccc(O)c1O` (stereo not drawn) [Example E10, 2,3-dihydroxy-N-(5-methaxy-1,2,3,4-tetrahydronaphthalen-1-yl)benzamide], the EC50 under setting [1] came out at 2440 nM.
`COc1cc(C(=O)NC2CCCCC2C)cc(Cl)n1` (stereo not drawn) [Example E40, 2-chloro-6-methoxy-N-(2-methylcyclohexyl)isonicotinamide]: the EC50 under setting [1] turned out to be 950 nM.
